Assay results published in patent publication US9789181B2, “PAN-DR binding polypeptides and uses thereof” (Epimmune Inc., priority 2009, dated 2017).
Like-named read-outs stand apart in the source and are kept apart here. Where no end group is shown, it is not given here.

Legend:
[1] = biological target: HLA DRB5 *0101 (Homo sapiens, UniProt P01903+Q30154); assay: IC50nM to purified HLA | DRB5 *0101
Protocol: (§1) Table printed on a drawing sheet, FIG. 1 (contd.)
Head of the field: IC50nM to purified HLA | DRB5 *0101
(§2) First copying reader's note: Continued from the preceding sheet of FIG. 1; decimal commas are used, the analog names give the substituted residues and positions in PADRE, and some values are printed in italics or bold and some SEQ ID NOs bold and underlined without a legend on this sheet.
Where the first naming reader finds the target: head: IC50nM to purified HLA | DRB5 *0101

[2] = biological target: HLA DRB1 *0301 (Homo sapiens, UniProt P01903+P01911, A100K/A102G/A103R/A169T/F55Y/I96L/K41T/L162R/M171V/P40S/Q125H/Q178H/Q39Y/R42S/S66N/T106N/T262R/W38E/Y61H); assay: IC50nM to purified HLA | DRB1 *0301
Sequence of HLA DRB1 *0301 (P01903 26-254 limits assumed, other chains not shown): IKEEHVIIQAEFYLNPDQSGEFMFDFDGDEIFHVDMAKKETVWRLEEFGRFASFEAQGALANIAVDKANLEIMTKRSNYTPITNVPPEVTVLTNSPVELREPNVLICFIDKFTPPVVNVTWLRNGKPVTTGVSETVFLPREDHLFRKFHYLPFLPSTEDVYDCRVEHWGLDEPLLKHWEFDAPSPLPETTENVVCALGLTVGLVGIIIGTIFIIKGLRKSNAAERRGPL
Protocol: as §1
Head of the field: IC50nM to purified HLA | DRB1 *0301
as §2
Where the first naming reader finds the target: head: IC50nM to purified HLA | DRB1 *0301

[3] = biological target: HLA DRB1 *0401 (Homo sapiens, UniProt P01903+P01911, A100K/A169T/F76Y/I96L/K127E/L162R/M171V/N62H/P40V/Q125Y/R42H/S133A/S149N/S66Y/V115G/V209L/W38E); assay: IC50nM to purified HLA | DRB1 *0401
Protocol: as §1
Head of the field: IC50nM to purified HLA | DRB1 *0401
as §2
Where the first naming reader finds the target: head: IC50nM to purified HLA | DRB1 *0401

[4] = biological target: T1, HLA DRB1 *0701 (Homo sapiens, UniProt P01903+P01911, A100R/A102G/A103Q/D57E/D86V/E43K/F76Y/K127E/L162R/M171V/P40G/Q125H/Q99D/R33Q/R42Y/R54Q/S133A/S66F/T210M/V115G/Y107V/Y59L/Y89S); assay: IC50nM to purified HLA | DRB1 *0701
Protocol: as §1
(§3) Head of the field: IC50nM to purified HLA | DRB1 *0701
as §2
(§4) Where the first naming reader finds the target: head: IC50nM to purified HLA | DRB1 *0701

[5] = biological target: HLA DRB1 *0901 (Homo sapiens, UniProt P01903+P01911, A100R/A103E/D57H/D86V/F55Y/F60I/F76Y/I96F/K127E/L162R/M171V/P40D/Q125H/Q99R/R33Q/R42F/S133A/S66N/T210M/V115G/W38K/Y107V/Y59G/Y89S); assay: IC50nM to purified HLA | DRB1 *0901
Protocol: as §1
Head of the field: IC50nM to purified HLA | DRB1 *0901
as §2
Where the first naming reader finds the target: head: IC50nM to purified HLA | DRB1 *0901

[6] = biological target: HLA DRB1 *1101 (Homo sapiens, UniProt P01903+P01911, A100R/A169T/A87E/I96F/K41T/L162R/M171V/P40S/Q125H/Q178H/Q39Y/Q99D/R42S/S66Y/T262R/V115G/W38E); assay: IC50nM to purified HLA | DRB1 *1101
Sequence of HLA DRB1 *1101 (P01903 26-254 limits assumed, other chains not shown): as above
Protocol: as §1
Head of the field: IC50nM to purified HLA | DRB1 *1101
as §2
Where the first naming reader finds the target: head: IC50nM to purified HLA | DRB1 *1101

[7] = biological target: T2, HLA DRB1 *0802 (Homo sapiens, UniProt P01903+P01911, A100R/A103L/A169T/F76Y/H45Y/I96F/K41T/L162R/M171V/P40S/Q125H/Q178H/Q39Y/Q99D/R218S/R42G/S66Y/V115G/W38E); assay: IC50nM to purified HLA | DRB1 *0802
Protocol: as §1
(§5) Head of the field: IC50nM to purified HLA | DRB1 *0802
as §2
(§6) Where the first naming reader finds the target: head: IC50nM to purified HLA | DRB1 *0802

[8] = biological target: T3, HLA DRB1 *0405 (Homo sapiens, UniProt P01903+P01911, A100R/A169T/D86S/F76Y/I96L/K127E/L162R/M171V/N62H/P40V/Q125Y/R42H/S133A/S149N/S66Y/V115G/V209L/W38E); assay: IC50nM to purified HLA | DRB1 *0405
Protocol: as §1
(§7) Head of the field: IC50nM to purified HLA | DRB1 *0405
as §2
(§8) Where the first naming reader finds the target: head: IC50nM to purified HLA | DRB1 *0405

[9] = tested on: crude extract from E. coli; assay: In situ protease assay: TNFα variants in E. coli crude extract, SDS-PAGE and Western blot; format: in vitro ADME; conditions: sequence inserted into loop EF of human TNFα, procedure of Example 2
Protocol: In order to test the protease resistance of selected, good binding PADRE analogues, their sequences were inserted by cloning techniques into a loop (loop EF) in human TNFα. Cell-free protein crude extract from E. coli expressing the modified TNFα molecules was prepared and proteolytic cleavage within the PADRE analogue sequences was analysed by SDS-PAGE followed by immunoblotting.
A synthetic cDNA encoding TNF (Y87S) was used as template. Oligonucleotides encoding PADRE or PADRE analogues were inserted into the template between A185 and E186 by PCR (cf. above). Resulting cDNAs were cloned into pET28b+(Novagen) and transformed into E. coli strain HMS 174. For recombinant expression, the resulting E. coli strains were cultured in fermentors in a defined medium at 37° C. Induction of recombinant expression was initiated by the addition of 1 mM of IPTG and temperature was lowered to 25° C. Cultures were harvested at 4, 8 or 24 h post-IPTG induction. TNFα variants were purified to >90% homogeneity by affinity chromatography using a TNFα specific monoclonal antibody as described in Nielsen et al., (2004), J Biol. Chem. 279:33593-33600. The purified TNFα variants were characterized by MALDI-TOF mass spectrometry to verify their identity and integrity.
In Situ Protease Assay: Analysis of the Protease Resistance of TNF-α Variants Using Western Blot
Aliquots (1 ml) of E. coli cell cultures, expressing the various TNF-α variants to be tested, were centrifuged (5000 g/5 min/5° C.) and the culture medium was discarded. Cell pellets were resuspended in 1 ml of 20 mM Bis-Tris, pH 6.0. Cell disruption was achieved by sonication (4×15 sec at an amplitude of 11 μm with 20 sec pauses between each sonication round). The resulting suspensions were centrifuged (20000 g/30 min/8° C.) and the supernatants (crude extracts) were transferred to fresh tubes. Crude extracts were then analysed for protein content using a Bradford protein assay (Biorad). Equivalent amounts of proteins were loaded onto 4-12% NuPAGE gels (Novex). After SDS-PAGE, proteins were transferred onto nitrocellulose membrane by semi-dry blotting. For immunoreaction, incubation with rabbit TNFα antiserum (1 h; dilution 1:10 000) and with horse radish peroxidase-conjugated secondary antibody (Dako P448) were carried out in Tris 50 mM, NaCl 150 mM, EDTA 5 mM, Igepal 0.1%, gelatine 0.5%. Detection was with ECL™ reagents (GE Healthcare).

[10] = biological target: T4, HLA DRB1 *1302 (Homo sapiens, UniProt P01903+P01911, A100E/A169T/K41T/L162R/M171V/P40S/Q125H/Q178H/Q39Y/Q99D/R42S/S66N/T262R/V115G/W38E/Y61H); assay: IC50nM to purified HLA | DRB1 *1302
T4 sequence (P01903 26-254 limits assumed, other chains not shown): as above
Protocol: as §1
(§9) Head of the field: IC50nM to purified HLA | DRB1 *1302
as §2
(§10) Where the first naming reader finds the target: head: IC50nM to purified HLA | DRB1 *1302

[11] = biological target: HLA DRB1 *0101 (Homo sapiens, UniProt P01903+P01911, A100R/D57E/F55L/F60I/F76Y/I96L/L162R/M171V/P40L/Q125E/R42F/V115G/Y59C); assay: IC50nM to purified HLA | DRB1 *0101
Protocol: as §1
Head of the field: IC50nM to purified HLA | DRB1 *0101
as §2
Where the first naming reader finds the target: head: IC50nM to purified HLA | DRB1 *0101

[12] = biological target: T3, HLA DRB1 *0405; assay: IC50nM to purified HLA | DRB1 *0405; remark: listed apart in the source
Protocol: as §1, §7
(§11) First copying reader's note: Continued from an earlier sheet of FIG. 1; decimal commas as printed, analog names encode substituted residues and positions, and some values are printed in italics or bold and some SEQ ID NOs underlined without a legend on this sheet.
as §8

[13] = biological target: HLA DRB1 *0404 (Homo sapiens, UniProt P01903+P01911, A100R/A169T/F76Y/I96L/K127E/L162R/M171V/N62H/P40V/Q125Y/R42H/S133A/S149N/S66Y/V209L/W38E); assay: IC50nM to purified HLA | DRB1 *0404
Protocol: as §1
Head of the field: IC50nM to purified HLA | DRB1 *0404
as §11
Where the first naming reader finds the target: head: IC50nM to purified HLA | DRB1 *0404

[14] = biological target: HLA DRB4 *0101 (Homo sapiens, UniProt P01903+P13762, G164S); assay: IC50nM to purified HLA | DRB4 *0101
Sequence of HLA DRB4 *0101 (P01903 26-254 limits assumed): as the sequence (P01903 26-254 limits assumed, other chains not shown) above
Sequence of HLA DRB4 *0101 (P13762 whole entry G164S): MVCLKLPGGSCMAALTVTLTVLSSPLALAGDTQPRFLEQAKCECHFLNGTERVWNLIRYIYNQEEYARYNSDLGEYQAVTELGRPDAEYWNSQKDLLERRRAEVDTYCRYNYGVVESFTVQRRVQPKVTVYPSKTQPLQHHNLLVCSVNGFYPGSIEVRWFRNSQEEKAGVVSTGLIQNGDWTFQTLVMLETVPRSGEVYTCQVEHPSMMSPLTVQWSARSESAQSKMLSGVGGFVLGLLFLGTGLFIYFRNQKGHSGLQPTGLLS
Protocol: as §1
Head of the field: IC50nM to purified HLA | DRB4 *0101
as §11
Where the first naming reader finds the target: head: IC50nM to purified HLA | DRB4 *0101

[15] = biological target: T1, HLA DRB1 *0701; assay: IC50nM to purified HLA | DRB1 *0701; remark: listed apart in the source
Protocol: as §1, §3, §11, §4

[16] = biological target: T4, HLA DRB1 *1302; assay: IC50nM to purified HLA | DRB1 *1302; remark: listed apart in the source
Protocol: as §1, §9, §11, §10

[17] = biological target: HLA DRB1 *1501 (Homo sapiens, UniProt P01903+P01911); assay: IC50nM to purified HLA | DRB1 *1501
Protocol: as §1
Head of the field: IC50nM to purified HLA | DRB1 *1501
as §11
Where the first naming reader finds the target: head: IC50nM to purified HLA | DRB1 *1501

[18] = biological target: T2, HLA DRB1 *0802; assay: IC50nM to purified HLA | DRB1 *0802; remark: listed apart in the source
Protocol: as §1, §5, §11, §6

Sequence | IC50 [1] [nM] | IC50 [2] [nM] | IC50 [3] [nM] | IC50 [4] [nM] | IC50 [5] [nM] | IC50 [6] [nM] | IC50 [7] [nM] | IC50 [8] [nM] | protease resistance of PADRE analogue sequence [9] | IC50 [10] [nM] | IC50 [11] [nM] | IC50 [12] [nM] | IC50 [13] [nM] | IC50 [14] [nM] | IC50 [15] [nM] | IC50 [16] [nM] | IC50 [17] [nM] | IC50 [18] [nM]
AAAHFVAANTLHAAA [SEQ ID NO: 29] | 33 | 361 | 4.5 | 76 | 37 | 22 | 17 | 18 | increased resistance towards proteolytic degradation | 47 | 4.1 | – | – | – | – | – | – | –
AAAIFVAAWTLHAAA [SEQ ID NO: 69] | – | – | – | – | – | – | – | – | increased resistance towards proteolytic degradation | – | – | 13 | 3.7 | 84 | 78 | 891 | 9.4 | 12
